Measured values: patent US20140206678A1, “INHIBITORS OF MTOR KINASE AS ANTI -VIRAL AGENT” (KADMON CORPORATION, LLC, priority 2011, published 2014)
“Also recorded” adds a separate entry of the source.

Columns and labels:
HCMV [1] = assay: HCMV yield in MRC5 fibroblasts at 96 hours post-infection (mTOR inhibitors); assay type: cell-based, human cytomegalovirus; settings: 0.5 pfu/cell, up to 5 μM
[2] = system: panel of 140 protein kinases; settings: read-out: IC50 against panel of 140 protein kinases; cited from earlier work
HCMV strain AD169 = assay: HCMV AD169 replication in human fibroblasts with 4-PBA alone or with mTOR inhibitors, TCID50; assay type: cell-based, human cytomegalovirus
[3] = system: confluent human fibroblasts; assay: Trypan blue exclusion viability of confluent human fibroblasts (4-PBA); assay type: cell-based; settings: highest dose tested; eight days
Method: FIG. 11. 4-PBA is not toxic to uninfected or infected confluent human fibroblasts. (A) Fibroblasts were maintained in medium containing the indicated concentrations of 4-PBA for 8 days. The medium was replaced every other day throughout the time course. At the end of the treatment period, cell viability was measured by the trypan blue exclusion assay. Date points represent the mean of duplicate wells. (B) Fibroblasts were infected with HCMV at a multiplicity of 0.1 pfu/cell. Cells were fed every other day with fresh medium containing the indicated concentration of 4-PBA. At eight days post infection, cells were washed once with media, and then media lacking drug was added. Eight days later (16 days post infection) cell free virus in the supernatant was quantitated by the TCID50 method. Date points represent the mean of duplicate wells.
Two experiments were performed to rule out the possibility that 4-PBA is simply toxic to the cells and inhibits HCMV indirectly by reducing cell viability (FIG. 11). In the first experiment (FIG. 11A) an assay for cell viability was performed on confluent human fibroblasts treated for eight days with different concentrations of the drug. The highest dose of the drug tested had no effect on cellular viability in the trypan blue exclusion assay. […] Then the drug was removed and the yield of virus was determined 8 days later.

HCMV [4] = assay: HCMV multistep growth in serum-starved human fibroblasts, cell-free virus by TCID50; assay type: cell-based, human cytomegalovirus; settings: day 10; rapamycin 20 nM, Torin1 250 nM; 0.05 PFU/cell
MCMV = MCMV replication in mouse embryo fibroblasts, TCID50; assay type: cell-based, murine cytomegalovirus; settings: wild-type MEFs; rapamycin 20 nM, Torin1 250 nM; 0.05 PFU/cell
PI3Ks = settings: cited from earlier work
mTOR = mTOR (Homo sapiens, UniProt P42345); settings: read-out: IC50 (selective mTOR inhibitors); cited from earlier work

In the case of `CN1CCN(C(=O)c2ccc(NC(=O)Nc3ccc(-c4nc(N5CCOCC5)cc(N5C[C@H]6CC[C@@H](C5)O6)n4)cc3)cc2)CC1` [Wyeth—Compound 27], the “HCMV virus production (yield as percentage of untreated cells)” value (HCMV [1]) is reported as “inhibit virus production”.

With `CC(C)n1nc(-c2ccc3oc(N)nc3c2)c2c(N)ncnc21` [INK128] the “HCMV virus production (yield as percentage of untreated cells)” value (HCMV [1]) was “inhibit virus production”.

In the case of `Cc1c(C(=O)N2CCOc3ccc(-c4ccc(N)nc4)cc3C2)ccc(S(C)(=O)=O)c1F` [XL388], the IC50 [2] is given as over 3000 nM.

For `O=C([O-])CCCc1ccccc1.[Na+]` [4-PBA, sodium 4-phenylbutyrate], the “virus yield 8 days after drug removal” value (HCMV strain AD169; all doses tested, 8-day treatment, 16 days post infection) was “recovered and produced a normal yield”, the HCMV virus replication (HCMV strain AD169; dose-dependent, day 8 post infection, 0.1 pfu/cell) was “effectively inhibited; also recorded: inhibited virus production” and the “cellular viability, trypan blue exclusion assay” value [3] was “no effect”.

With `Cn1c(=O)n(-c2ccc(C(C)(C)C#N)cc2)c2c3cc(-c4cnc5ccccc5c4)ccc3ncc21` [BEZ235] the “HCMV virus production (yield as percentage of untreated cells)” value (HCMV [1]) was “inhibit virus production”.

With `CO[C@H]1C[C@@H]2CC[C@@H](C)[C@@](O)(O2)C(=O)C(=O)N2CCCC[C@H]2C(=O)O[C@H]([C@H](C)C[C@@H]2CC[C@@H](O)[C@H](OC)C2)CC(=O)[C@H](C)/C=C(\C)[C@@H](O)[C@@H](OC)C(=O)[C@H](C)C[C@H](C)/C=C/C=C/C=C/1C` [rapamycin] the “reduction of HCMV yield” value (HCMV [4]) was about 8 fold and the MCMV replication (MCMV) was “no inhibitory effect”.

For `COc1cc(-c2cn(-c3nc(N4CCOCC4)nc(N4CCOCC4)n3)cn2)cc(OC)c1O` [KU-BMCL-200908069-5], the “fold selective versus PI3Ks (PI3K)” value (PI3Ks) is listed as over 500 fold.

In the case of `CNC(=O)Nc1ccc(-c2nc(N3C[C@H]4CC[C@@H](C3)O4)c3cnn(C4CCC5(CC4)OCCO5)c3n2)cc1` [WYE-125132], the IC50 (mTOR) is given as 0.19 nM and the “fold selective versus PI3Ks (PI3K)” value (PI3Ks) is given as > 5,000 fold.

In the case of `O=C(Nc1ccc(-c2nc(N3CC4CCC(C3)O4)c3sccc3n2)cc1)NC1CC1` [Wyeth-BMCL-200910075-9b], the IC50 (mTOR) is listed as 0.7 nM and the “fold selective versus PI3Ks (PI3K)” value (PI3Ks) is listed as > 1,000 fold.
